{"source": "patent US8747837B2", "about": "“Oncolytic vaccinia virus combination cancer therapy” (priority 2009, dated 2014)", "key": {"[1]": {"tested_on": "JX-594 replication in HepG2 (HCC) cells", "type": "cell-based, vaccinia virus"}, "[2]": {"tested_on": "B16-F10-LacZ cells", "test": "B16 melanoma lung nodule model", "type": "in vivo, C57BL/6 mice", "conditions": "combination therapy, FIG. 4 legend", "experimental": "Sorafenib Enhances JX-594 Activity Against Murine B16 Melanoma Lung Nodules in Vivo: The combination of JX-594 and sorafenib was tested in an immunocompentent murine model of B16 melanoma tumors. C57BL/6 mice were injected with 3×10^5 B16-F10-LacZ cells IV and treated with Sorafenib alone (HD: 10 mg/kg, LD: 50 μg/kg p.o. daily for 2 weeks), JX594 alone (10^7 pfu IV 3 times per week for 1 week), or in combination (LD or HD sorafenib prior to JX-594 IV) (n=5 per group)(FIG. 4, top panel). At the end of treatment, mice were sacrificed and lungs were fixed and stained to detect B16 surface nodules (n=5 per group). The mean number of tumor nodules at the end of study is shown for each group (FIG. 4)."}, "[3]": {"tested_on": "murine HCC model", "type": "in vivo"}, "[4]": {"tested_on": "hepatocellular carcinoma", "test": "Phase 2 trial, IV JX-594 then IT JX-594 then sorafenib in HCC", "type": "in vivo, human", "conditions": "Patient JX16-HCC-03, 10 days after sorafenib initiation, after one IV and two IT doses of JX-594", "experimental": "JX-594 Treatment Procedure, Patients Treated by IV JX-594 Followed by IT JX-594 Followed by Sorafenib: Patients with unresectable HCC received […] of JX-594 levels (10^9 pfu). For the first dose (Day 1), JX-594 was administred by intravenous infusion over 60 minutes. For the second and third doses (Day 8 and Day 22), JX-594 was administered via imaging-guided intratumoral injection using a multi-pronged Quadrafuse injection needle in roughly spherical tumors, or by a 21-gauge PEIT (percutaneous ethanol injection, multi-pore; HAKKO Medicals; Tokyo, Japan) needle in irregularly-shaped tumors. Starting on Day 25, patients imitated oral sorafenib therapy (400 mg twice daily p.o.). Patients with viable tumor tissue received a Week 12 IT injection of JX-594 (sorafenib treatment was temporarily discontinued 2-3 days before, during and 4-5 days after this booster injection). Imaging (CT, DECE MIR and/or PET-CT) was performed at baseline, Day 25, Week 6 and/or Week 12 to assess response.\nExample JX16-HCC-03, IV+IT+IT+Sorafenib Patient: Patient JX16-HCC-03 had hepatocellular carcinoma and was enrolled in a Phase 2 Clinical Trial of JX-594. After completing JX-594 administration (one intravenous and two intratumoral doses) patient received sorafenib."}, "[5]": {"tested_on": "JX-594 replication in PLC/PRF/5 human HCC cell line", "test": "JX-594 burst size / replication with sorafenib in PLC/PRF/5 cells", "type": "cell-based, vaccinia virus"}, "[6]": {"tested_on": "hepatocellular carcinoma", "test": "Sorafenib therapy following JX-594 in HCC patients (DCE-MRI, Choi)", "type": "in vivo, human", "experimental": "Sorafenib Therapy and Tumor Response Assessment Following JX-594: Patients completed the IT clinical trial of JX-594 after 8 weeks on study. Some patients (Patients 1702, 1705, 1002, 1712, 1713) went on to receive standard sorafenib treatment (400 mg twice daily p.o.). Tumors in these patients were followed by DCE-MRI imaging using the same procedures that were used to assess response to JX-594 treatment.\nTumor Vascularity and Response Assessment: DCE MRI (dynamic contrast-enhanced magnetic resonance imaging) was performed at screening (baseline), on Day 5 (optional) and Week 8. For patients going on to Sorafenib, DCE MRI was performed 4 and/or 8 weeks after the start of Sorafenib treatment. DCE MRI assesses tumor size, vascularity and necrosis. The screening/baseline DCE MRI was used as the reference from which to determine time to progression and response rates. […] Tumor progression status and tumor response(s) to JX-594 were assessed radiologically by modified RECIST and modified Choi criteria at the Week 8 visit. Independent review of the images was made by radiologist(s) with expertise in evaluating hepatocellular carcinoma on MRI scans. For evaluation of the intra-hepatic tumors, the proportion of subjects with an objective “complete” or “partial” anti-tumor response was determined based on modified RECIST, and a response as measured by Modified Choi criteria (defined as a ≧10% decrease in the sum of the longest diameter and/or ≧15% decrease in the average tumor signal intensity at MRI).\nTumor Response by Modified Choi Criteria: The Choi response criteria takes into consideration changes in tumor density in addition to tumor diameter (versus RECIST) and data supporting its utility has been published (Choi et al. 2004). Early studies have shown that liver tumors treated with JX-594 can develop significant internal necrosis without a concomitant decrease in size, as has been described in gastrointestinal stromal tumors by Choi et al. (2004). Therefore, intra-hepatic tumors were also measured and response evaluated using a Modified Choi Criteria. The modification of the criteria is necessary as DCE MRI was the imaging modality employed for measuring tumor response. […] The screening/baseline DCE MRI was used as the reference from which to determine response. A response by Modified Choi criteria was defined as a ≧10% decrease in the sum of the longest diameter of the injected tumor(s) and/or ≧15% decrease in the average injected tumor signal intensity on MRI. The average MRI signal intensity (SI) was measured as a percentage of tumor."}, "[7]": {"tested_on": "CT26 colorectal tumor cells", "test": "CT26 subcutaneous colorectal tumor model", "type": "in vivo, Balb/c mice", "conditions": "combination therapy, FIG. 3 legend", "experimental": "FIG. 3. […] Kaplan-Meier survival curves are shown for each condition in the middle panel. Effects on tumor volume are shown in the lower panel.\nSorafenib enhances JX-594 activity against murine CT26 primary tumors in vivo: The combination of JX-594 and sorafenib was tested in an immunocompentent murine model of subcutaneously implanted CT26 colorectal tumor cells. Balb/c mice were injected with 3×10^5 CT26 cells subcutaneously and after 11 days, treatment commenced with Sorafenib alone (10 mg/kg p.o. daily for 2 weeks), JX594 alone (10^8 pfu IV 3 times per week for 1 week), or in combination (JX594 prior to Sorafenib, or Sorafenib prior to JX594) (n=4 per group) (FIG. 3, upper panel). Control animals received PBS only. For this experiment, a version of JX-594 was used that expresses murine GM-CSF. Tumors were measured twice weekly until endpoint. Surviving proportions of each study group at each timepoint post treatment are shown (FIG. 3, middle panel). The mean tumor volumes of each study group at each timepoint post-treatment are shown (FIG. 3, lower panel)."}, "[8]": {"tested_on": "JX-594 replication in SNU423, SNU398, SNU475, SNU449, SNU387 and U2OS", "type": "cell-based, vaccinia virus"}, "[9]": {"tested_on": "JX-594 replication in A2780 (ovarian) cells", "type": "cell-based, vaccinia virus"}, "[10]": {"tested_on": "HepG2 (human HCC line) tumors", "test": "HepG2 vascularity study, CD31 vessel counts", "type": "in vivo, nude mice", "from_the_text": "FIG. 6 Anti-vascular effects of JX-594 followed by sorafenib. Top panels show study design of a preclinical study of JX-594 followed by Sorafenib in HepG2 xenograft model. […] Error bars are standard error.\nExperimental Methods, Vascularity Study: The study followed longer term effects on vascularity and assessed the efficacy of JX-594+/−Sorafenib in the HepG2 model. HepG2 (human HCC line) tumors were implanted subcutaneously in nude mice. Animals were randomized to seven treatment groups (n=5 per group) to test agents alone, and in combination. Groups were treated with JX-594 (10^6 pfu intratumorally, D1 and D8) and/or Sorafenib (400 μg i.p., daily D15-D29) or PBS (control) on the schedule detailed in (FIG. 6). Tumors were measured using calipers twice weekly. Serum samples were collected on D1, D8, D15, D22 and D29 for measurement of VEGF and GM-CSF levels. Mice were euthanized on D22 or D35. Prior to euthanization, mice were injected with fluorescent microspheres to allow for visualization of tumor perfusion. […]\nResults: Vessels were counted in CD31-stained OCT tumor sections; the average number of vessels in 3 fields of 200× magnification are presented in (FIG. 6)."}, "[11]": {"tested_on": "hepatocellular carcinoma", "conditions": "cited from earlier work; for mean tumor necrosis (MRI): sorafenib-only trial"}, "[12]": {"tested_on": "hepatocellular carcinoma", "test": "Sorafenib-only local control group assessed by Choi criteria", "type": "in vivo, human", "conditions": "no JX-594, 26 total, 15 assessed, both responders also had radiation therapy", "experimental": "Example Sorafenib Only “Control Group” (Figure Included): Historically, the RECIST response rate to sorafenib alone is 1-2% (Llovet et al., 2008; Cheng et al., 2009). For a local control group assessed by Choi criteria, HCC patients that had not received JX-594, but had received sorafenib, were assessed for Choi response. In the hospital where 4 of the 5 JX-594 patients were treated, 26 other patients had received sorafenib in the same period. 7 patients died prior to response assessment, and 15 patients were assessed for Choi response. […] It should be noted that both of these patients had received radiation therapy in conjunction with sorafenib therapy."}}, "note": "“Also recorded” adds a separate entry of the source. Where two headings read alike, the source gives them in different places."}
{"compound": "CNC(=O)c1cc(Oc2ccc(NC(=O)Nc3ccc(Cl)c(C(F)(F)F)c3)cc2)ccn1", "note": "[Sorafenib]", "values": [{"measurement": "JX-594 plaque formation and replication (burst)", "setting": "[1]", "value": "can inhibit viral growth and replication; also recorded: Inhibits JX-594 Plaque Formation and Replication"}, {"measurement": "JX-594 efficacy in murine B16 metastatic melanoma model", "setting": "[2]", "value": "enhances JX-594 efficacy"}, {"measurement": "angiogenesis", "setting": "[3]; adjuvant sorafenib after JX-594", "value": "inhibited angiogenesis"}, {"measurement": "anti-tumoral efficacy", "setting": "[3]; adjuvant sorafenib after JX-594, versus either agent alone", "value": "significantly improved anti-tumoral efficacy over either agent alone"}, {"measurement": "DCE-MRI perfusion of non-injected extrahepatic tumor", "setting": "[4]", "value": "loss of perfusion"}, {"measurement": "JX-594 replication", "setting": "[5]; 10 μM sorafenib, various MOI, 24 hours infection, plaque assay on Vero cells", "value": "inhibited"}, {"measurement": "burst size decreased", "setting": "[5]; Sorafenib 10 μM added 2 hrs prior to, during or 2 hrs after JX-594 infection, PLC/PRF/5", "value": "up to 100 fold"}, {"measurement": "DCE MRI finding after initiation of Sorafenib", "setting": "[6]; Patient 1702, after three IT doses JX-594, 4 and 8 weeks of Sorafenib (200 mg twice daily p.o.)", "value": "acute tumor necrosis"}, {"measurement": "DCE MRI finding after initiation of Sorafenib", "setting": "[6]; Patient 1705, after JX-594, 4 weeks of Sorafenib 400 mg twice daily p.o.", "value": "acute tumor necrosis"}, {"measurement": "DCE-MRI finding after initiation of Sorafenib", "setting": "[6]; Patient 1712, after JX-594, 4 weeks of Sorafenib 400 mg twice daily p.o.", "value": "acute tumor necrosis"}, {"measurement": "tumor necrosis and vascular shutdown with adjuvant sorafenib", "setting": "[6]; sorafenib after the Week 8 assessment, patients pre-treated with JX-594", "value": "dramatic and durable tumor necrosis and vascular shutdown in two patients; also recorded: dramatic and durable tumor necrosis and vascular shutdown in at least three patients"}, {"measurement": "JX-594 efficacy against CT26 subcutaneous solid tumors", "setting": "[7]", "value": "enhances JX-594 efficacy"}, {"measurement": "JX-594 replication", "setting": "[8]", "value": "inhibited JX-594 replication"}, {"measurement": "JX-594 plaque formation and replication (burst)", "setting": "[9]", "value": "can inhibit viral growth and replication; also recorded: Inhibits JX-594 Plaque Formation and Replication"}, {"measurement": "number of vessels in CD31-stained tumor sections", "setting": "[10]; Sorafenib alone 400 μg i.p. daily D15-D29, Day 29", "value": "transient decrease in the number of vessels"}, {"measurement": "number of vessels in CD31-stained tumor sections", "setting": "[10]; Sorafenib alone, Day 35", "value": "vessel counts increase again"}, {"measurement": "RECIST response rate", "setting": "[11]; sorafenib alone, historical (Llovet et al., 2008; Cheng et al., 2009)", "value": "1-2%"}, {"measurement": "mean tumor necrosis (MRI)", "setting": "[11]; after several courses of treatment (Abou-Alfa et al., 2006)", "value": 27, "unit": "%"}, {"measurement": "mean tumor necrosis (MRI)", "setting": "[11]; at baseline (Abou-Alfa et al., 2006)", "value": 9.8, "unit": "%"}, {"measurement": "patients with a Choi+ response", "setting": "[12]", "value": 2, "unit": "patients"}]}
